Where “and” joins values, the source holds several entries; their conditions need not be identical. Equal entries are not always repeated.
Experiment: molar heat capacity at constant pressure
Conditions: 101.33 kPa, Crystal, Small sample (50 mg) DSC

CCCCCC[n+]1cccc2ccccc21.O=S(=O)([N-]S(=O)(=O)C(F)(F)F)C(F)(F)F [1-hexylquinolinium bis(trifluoromethylsulfonyl)amide]
Conditions	molar heat capacity at constant pressure
203.04 K	300.57 J/K/mol [middle of 4 runs]
203.05 K	300.39 J/K/mol and 306.52 J/K/mol
203.06 K	305.88 J/K/mol
203.08 K	302.69 J/K/mol
203.13 K	298.95 J/K/mol
203.21 K	298.13 J/K/mol
203.35 K	295.39 J/K/mol
203.56 K	285.68 J/K/mol
203.85 K	280.12 J/K/mol
204.22 K	282.02 J/K/mol
204.66 K	288.24 J/K/mol
205.16 K	293.91 J/K/mol
205.7 K	295.33 J/K/mol
206.26 K	301.86 J/K/mol
206.82 K	315.29 J/K/mol
207.36 K	320.59 J/K/mol
207.9 K	319.02 J/K/mol
208.43 K	317.61 J/K/mol
208.95 K	317.22 J/K/mol
209.48 K	316.74 J/K/mol
210.02 K	313.5 J/K/mol
210.58 K	310.53 J/K/mol
211.15 K	311.06 J/K/mol
211.74 K	311.71 J/K/mol
212.32 K	311.41 J/K/mol
212.92 K	311.93 J/K/mol
213.51 K	313.38 J/K/mol
214.11 K	314.64 J/K/mol
214.7 K	315.47 J/K/mol
215.3 K	316.35 J/K/mol
215.9 K	317.1 J/K/mol
216.5 K	317.71 J/K/mol
217.1 K	318.5 J/K/mol
217.7 K	319.34 J/K/mol
218.3 K	320.14 J/K/mol
218.9 K	320.94 J/K/mol
219.5 K	321.78 J/K/mol
220.1 K	322.65 J/K/mol
220.7 K	323.47 J/K/mol
221.3 K	324.32 J/K/mol
221.9 K	325.15 J/K/mol
222.5 K	325.93 J/K/mol
223.1 K	326.77 J/K/mol
223.7 K	327.6 J/K/mol
224.3 K	328.43 J/K/mol
224.9 K	329.26 J/K/mol
225.5 K	330.08 J/K/mol
226.1 K	330.9 J/K/mol
226.7 K	331.78 J/K/mol
227.3 K	332.65 J/K/mol
227.9 K	333.52 J/K/mol
228.5 K	334.39 J/K/mol
229.1 K	335.29 J/K/mol
229.7 K	336.19 J/K/mol
230.3 K	337.06 J/K/mol
230.9 K	337.92 J/K/mol
231.5 K	338.75 J/K/mol
232.1 K	339.57 J/K/mol
232.7 K	340.41 J/K/mol
233.3 K	341.25 J/K/mol
233.9 K	342.13 J/K/mol
234.5 K	343.04 J/K/mol
235.11 K	343.9 J/K/mol
235.71 K	344.83 J/K/mol
236.31 K	345.73 J/K/mol
236.91 K	346.55 J/K/mol
237.51 K	347.39 J/K/mol
238.11 K	348.22 J/K/mol
238.71 K	348.99 J/K/mol
239.31 K	349.79 J/K/mol
239.91 K	350.56 J/K/mol
